Source: US4243678A, “Acylhydrocarbylaminoalkanoic acids, compositions and uses” (Byk Gulden Lomberg Chemische Fabrik GmbH, priority 1977, dated 1981)
Read-outs that look alike come from different tables or passages of the source.

Tests used:
[1] = Influence on pancreatic secretion of the narcotized rat; type: in vivo, rat (male Sprague-Dawley); conditions: in vivo, LD50 mouse i.p. / ED50 rat i.d.
Text: (§1) Male Sprague-Dawley rats (body weight from 250 to 300 g) are narcotized with 1.2 g/kg urethane i.m. Then the abdominal cavity is opened medially, the bile duct is ligatured shortly above the place where it leads into the duodenum and also near to the hepatic duct, and both sections are catheterized towards the liver.
(§2) As in the rat all the pancreatic ducts lead out into the central section of the bile duct; it is possible in this way to discharge the pancreatic secretion separately from the distal (ligatured) section and the bile separately from the proximal section of the bile duct.
(§3) The quantities of pancreatic juice and bile juice obtained are measured at intervals of 30 minutes over a period from 2 hours before to 3 hours after the intraduodenal (V. jugularis externa) administration of the compounds to be tested (quantity of liquid administered 5 ml/kg).
(§4) The body temperature of the animals is maintained at 36° to 38° C. by means of electric blankets and radiation; the temperature is monitored rectally.
(§5) The liquid volumes of the 30-minute fractions after the administration of the substance are related in each case to the quantity of bile or pancreatic juice secreted prior to the application of the substance (=100%, mean of the last two measurements). The maximum percentage increase in the pancreatic or bile secretion is represented in dependence upon dose, and from this the ED50 is determined by interpolation.

pancreatic secretion = assay: as above; type: in vivo, rat (male Sprague-Dawley); conditions: 0.5 h
Text: as §1, §2, §3, §4, §5

[2] = Determination of toxicity (lethal action on the mouse after intraperitoneal application); type: in vivo; conditions: in vivo, ip
Protocol: The toxicity investigations are carried out on female NMRI mice (body weight 22 to 26 g). The animals (5 animals per dose) are given food and water ad lib. Different doses of the substances are administered intraperitoneally. The duration of observation is 14 days. The LD50, i.e. the dose at which 50% of the animals die, is determined graphically from the dose/effect curve.

[3] = Antihepatotoxic effect: duration of hexobarbital sleep of the rat after liver damage by CCl4; conditions: rat, in vivo
Protocol: (§6) The compounds to be tested are administered 1 hour prior to the administration of CCl4 orally in a liquid volume of 10 ml/kg.
(§7) The antihepatotoxic effect of the compounds to be tested (sodium salts in aqueous solution) is determined by the reduction of the prolongation of sleeping period caused by the CCl4 liver cell damage in the groups treated, as compared with the prolongation of the sleeping period of the CCl4 control group (=100%). […]

liver damage by CCl4 = assay: as above; conditions: Rattus norvegicus, po; for ED25: read-out: ED25 antihepatotoxic effect (shortens hexobarbital narcosis by 25%)
Protocol: as §6, §7

[4] = system: glucose formation from lactate and pyruvate in isolated perfused liver; assay: Inhibition of the formation of glucose from lactate and pyruvate in the isolated perfused rat liver; set-up: species or system rat (male Sprague-Dawley); conditions: for Glucose formation, % change: isolated perfused liver of fasting rats; for ED50 inhibition of formation of glucose from lactate and pyruvate: from 4 concentrations, 0.02 to 1.00 mmol/liter
Protocol: For this purpose young male Sprague-Dawley rats (160 to 200 g) are used. The rats are kept in cages of up to 5 animals in a temperature-controlled room (23° C.) with a fixed day/night rhythm (12/12 hours).
Food is withheld from the animals for from 20 to 22 hours prior to the operation. They are allowed to take water ad lib. The operation and the perfusion of the liver are carried out using the technique of R. Scholz et al. [Eur. J. Biochem. 38 (1973) 64 to 72]. The perfusion liquid used is Krebs-Henseleit bicarbonate buffer (pH 7.4), which is saturated with an oxygen/carbon dioxide mixture (95/5) and contains 1.6 mmol/liter of L-lactate and 0.2 mmol/liter of pyruvate. The perfusion liquid is pumped into the liver via a cannula inserted into the portal vein. The effluent perfusion liquid is collected via a cannula inserted into the Vena cava. The liver is perfused for about 2 hours. The test compounds are infused for 16 minutes each from the 32nd to the […] after the perfusion in increasing concentrations (0.02 to 1.00 mmol/liter).
Samples of the effluent perfusion liquid are collected at one-minute intervals and analyzed for glucose, lactate and pyruvate (using standard enzymatic methods). The percentages shown in Table VIII relate to the condition occurring before and after the administration of the compounds, the changes caused solely by lactate and pyruvate being set as being equal to 100%.

[5] = Table I, read-out: TQ (LD50/ED50), pancreatic secretion
[6] = Rattus norvegicus, read-out: ED50 pancreatic secretion (dose which brings about an increase in the pancreatic secretion by a maximum of 50%)
[7] = TQ (LD50/ED50), antihepatotoxic effect, LD50 mouse i.p. / ED50 rat p.o., Table III
[8] = read-out: ED50 antihepatotoxic effect (dose which shortens the hexobarbital narcosis by 50%)
[9] = TQ LD50/ED25, antihepatotoxic effect, LD50 mouse i.p. / ED25 rat p.o., Table V
[10] = read-out: ED50 antihepatotoxic effect (shortens hexobarbital narcosis by 50%)
[11] = 0.2 mmole/liter in the perfusate, Table VIII
[12] = Table VII, read-out: TQ [LD50/ED50], pancreatic secretion
[13] = narcotized rat, i.d., liquid volume, 30 min fraction, Table VII, read-out: ED50 pancreatic secretion (dose which brings about an increase in pancreatic secretion of a maximum of 50%)
[14] = Table X, read-out: TQ LD50/ED50, pancreatic secretion
[15] = narcotized rat, i.d., liquid volume, 30 minute fraction, Table X, read-out: ED50 pancreatic secretion (dose which brings about an increase in pancreatic secretion by a maximum of 50%)
[16] = TQ LD50/ED25, antihepatotoxic effect, LD50 mouse i.p. / ED25 rat p.o., Table XI
[17] = TQ LD50/ED50, antihepatotoxic effect, LD50 mouse i.p. / ED50 rat p.o., Table XI

SMILES | selectivity ratio [1, 5] | ED50 (pancreatic secretion; [6]) | LD50 at 336 h ([2]; mouse, Table I) | ED25 (liver damage by CCl4) | selectivity ratio [1, 14] | ED50 (pancreatic secretion; [15]) | selectivity ratio [3, 16] | LD50 at 336 h ([2]; mouse i.p., Table X) | further results
O=C(O)CCCN(C(=O)c1ccc(Cl)cc1)C12CC3CC(CC(C3)C1)C2 [Serial No. 6, N-(p-chloro)benzoyl-4-(1-adamantyl)aminobutyric acid] | 200 | 1 mg/kg | 200 mg/kg |  |  |  |  |  | 
CC(C)(C)CC(C)(C)N(CCCC(=O)O)C(=O)c1ccc(Cl)cc1 [Serial No. 7, N-(p-chloro)benzoyl-4-[(1,1,3,3-tetramethylbutyl)amino]butyric acid] | 110 | 2 mg/kg | 220 mg/kg |  |  |  |  |  | 
C#CC1(N(CCCC(=O)O)C(C)=O)CCCCC1 [Serial No. 8, N-acetyl-4-[(1-ethynylcyclohexyl-1)-amino]butyric acid] | > 100 | 10 mg/kg | > 1000 mg/kg |  |  |  |  |  | 
O=C(O)CCCN(C(=O)c1ccc(Cl)cc1)C(c1ccccc1)c1ccccc1 [Serial No. 12, N-(p-chloro)benzoyl-4-benzhydrylaminobutyric acid] | ~2500 | ~0.1 mg/kg | 250 mg/kg |  |  |  |  |  | selectivity ratio [3, 7]: 25; ED50 (liver damage by CCl4; [8]): 10 mg/kg
CC(c1ccccc1)N(CCCCCC(=O)O)C(=O)c1ccc(Cl)cc1 (centres unmarked) [Serial No. 13, N-(p-chloro)benzoyl-6-(1-phenylethylamino)caproic acid] | 110 | 2 mg/kg | 220 mg/kg |  |  |  |  |  | 
O=C(O)CCCN(Cc1ccccc1)C(=O)c1ccc(Cl)cc1 [Serial No. 15, N-(p-chloro)benzoyl-4-benzylaminobutyric acid] | 233 | 1.5 mg/kg | 350 mg/kg |  |  |  |  |  | 
O=C(O)CCCN(C(=O)c1ccc(Cl)cc1)C1CCCCCCC1 [Serial No. 18, N-(p-chloro)benzoyl-4-cyclooctylaminobutyric acid] | 60 | 2.5 mg/kg | 150 mg/kg |  |  |  |  |  | selectivity ratio [3, 7]: 18.8; ED50 (liver damage by CCl4; [8]): 8 mg/kg
O=C(O)CCCCN(C(=O)c1ccc(Cl)cc1)c1ccccc1-c1ccccc1 [Serial No. 28, 5-[p-chloro-N-(biphenyl-2-yl)benzamido]valeric acid] |  |  |  | 3 mg/kg |  |  |  |  | selectivity ratio [3, 9]: 46.7; selectivity ratio ([3]; TQ LD50/ED50, antihepatotoxic effect, LD50 mouse i.p. / ED50 rat p.o., Table V): 11.7; ED50 (liver damage by CCl4; [10]): 12 mg/kg; LD50 at 336 h ([2]; mouse i.p., Table V): 140 mg/kg; Glucose formation, % change [4, 11]: -89%; ED50 inhibition of formation of glucose from lactate and pyruvate ([4]; Table VIII): 25 µg/mL
O=C(O)CCCCCN(C(=O)c1ccc(Cl)cc1Cl)c1ccccc1-c1ccccc1 [Serial No. 29, 6-[2,4-dichloro-N-(biphenyl-2-yl)benzamido]caproic acid] |  |  |  |  |  |  |  |  | selectivity ratio [1, 12]: ~147; ED50 (pancreatic secretion; [13]): 1.7 mg/kg; LD50 at 336 h ([2]; mouse i.p., Table VII): ~250 mg/kg; Glucose formation, % change [4, 11]: -93%; ED50 inhibition of formation of glucose from lactate and pyruvate ([4]; Table VIII): 23 µg/mL
COc1ccc(Cl)cc1C(=O)N(CCCC(=O)O)c1ccccc1-c1ccccc1 [Serial No. 33, 4-[2-methoxy-5-chloro-N-(biphenyl-2-yl)benzamido]butyric acid] |  |  |  |  |  |  |  |  | selectivity ratio [1, 12]: 85; ED50 (pancreatic secretion; [13]): 2 mg/kg; LD50 at 336 h ([2]; mouse i.p., Table VII): 170 mg/kg
CC(C)C(=O)N(CCCCCC(=O)O)c1ccccc1-c1ccccc1 [Serial No. 34, 6-[N-(biphenyl-2-yl)isobutyramido]caproic acid] |  |  |  | < 30 mg/kg |  |  |  |  | selectivity ratio [3, 9]: 8.7; LD50 at 336 h ([2]; mouse i.p., Table V): 260 mg/kg
O=C(O)CCCN(C(=O)c1ccc(Cl)cc1)c1ccc(C2CCCCC2)cc1 [Serial No. 37, 4-[p-chloro-N-(1',2',3',4',5',6'-hexahydrobiphenyl-4-yl)benzamido]butyric acid] |  |  |  | ≤ 10 mg/kg |  |  |  |  | selectivity ratio [1, 12]: ~100; ED50 (pancreatic secretion; [13]): 1.5 mg/kg; selectivity ratio [3, 9]: ≥ 15; LD50 at 336 h ([2]; mouse i.p., Table V): ~150 mg/kg
CC(=O)N(CCCC(=O)O)c1cccc2ccccc12 [Serial No. 39, 4-[N-(α-naphthyl)acetamido]butyric acid] |  |  |  | < 10 mg/kg | ~500 | ~1.5 mg/kg | > 75 | 750 mg/kg | selectivity ratio [3, 17]: 15; ED50 (liver damage by CCl4; [10]): 50 mg/kg
O=C(O)CCCN(C(=O)c1ccc(Cl)cc1Cl)c1cccc2ccccc12 [Serial No. 41, 4-{2,4-dichloro-[N-(α-naphthyl)]benzamido}butyric acid] |  |  |  | 10 mg/kg | 32 | 7.5 mg/kg | 24 | 240 mg/kg | selectivity ratio [3, 17]: 9.2; ED50 (liver damage by CCl4; [10]): 26 mg/kg
COc1ccc(Cl)cc1C(=O)N(CCCC(=O)O)c1cccc2ccccc12 [Serial No. 44, 4-{5-chloro-2-methoxy-[N-(α-naphthyl)]benzamido}butyric acid] |  |  |  | ~30 mg/kg | > 270 | < 1 mg/kg | ~9 | 270 mg/kg | 
COc1ccc2cccc(N(CCCC(=O)O)C(=O)c3ccc(Cl)cc3)c2c1 [Serial No. 46, 4-{p-chloro-[N-(7-methoxy-1-naphthyl)]benzamido}butyric acid] |  |  |  | 7 mg/kg | 400 | 0.3 mg/kg | 17.1 | 120 mg/kg | selectivity ratio [3, 17]: 7.5; ED50 (liver damage by CCl4; [10]): 16 mg/kg
O=C(O)CCCCN(C(=O)c1ccc(Cl)cc1)c1cccc2ccccc12 [Serial No. 47, 5-{p-chloro-[N-(α-naphthyl)]benzamido}valeric acid] |  |  |  |  | 85 | 2 mg/kg |  | 170 mg/kg | Glucose formation, % change ([4]; 0.2 mmol/liter in the perfusate, Table XIII): -86%; ED50 inhibition of formation of glucose from lactate and pyruvate ([4]; Table XIII): 31 µg/mL
O=C(O)CCCN(C(=O)c1cccc(C(F)(F)F)c1)c1cccc2ccccc12 [compound 42] |  |  |  |  | > 160 | < 1 mg/kg |  | 160 mg/kg | 
O=C(O)CCCCCN(C(=O)c1ccc(Cl)cc1)c1cccc2ccccc12 [compound 48] |  |  |  | ~7 mg/kg | ~160 | ~1 mg/kg | ~22.9 | 160 mg/kg | 
CC(=O)N(CCCC(=O)O)C1CCCc2ccccc21 (centres unmarked) [compound 49] |  |  |  | < 10 mg/kg | ≥ 40 | ~5 mg/kg | > 20 | > 200 mg/kg | 
